Data published in patent publication US11111242B2, “Pyrrolo[2,3-d]pyrimidinyl, pyrrolo[2,3-b]pyrazinyl and pyrrolo[2,3-d]pyridinyl acrylamides” (Pfizer Inc., priority 2013, dated 2021).
Like-named read-outs stand apart in the source and are kept apart here.

Columns and labels:
[1] = system: IL-15 induced STAT5 phosphorylation in Human Whole Blood (total lymphocytes); assay: HWB IL-15 Induced STAT5 Phosphorylation Assay; type: cell-based; conditions: Lymphocyte, IL-15 stimulated, read-out: HWB-IL15-pSTAT5 IC50
[2] = system: IL-15 induced P-STAT5 in human PBMC (total lymphocytes); assay: PBMC IL-15 Induced P-STAT5; type: cell-based; conditions: IL-15 stimulated, read-out: PBMC IL15-pSTAT5 IC50
Procedure, shortened: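 Thawed human PBMC in RPMI, preincubated 30 min at 37 °C, then IL-15 stimulated. Cells methanol-permeabilized (90%, on ice 20 min) and stained for phospho-STAT5. Read by flow cytometry, gated on total lymphocytes.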

| Structure (SMILES) | IC50 [1] [nM] | IC50 [2] [nM] | IC50 ([2]; Homo sapiens, PBMC) [nM] |
| --- | --- | --- | --- |
| C=CC(=O)N1CCC[C@H]1CNc1cnc2[nH]cc(C(=O)NC(C)C)c2n1 [Example 177, 2-({[(2S)-1-acryloylpyrrolidin-2-yl]methyl}amino)-N-(propan-2-yl)-5H-pyrrolo[2,3-b]pyrazine-7-carboxamide] | 804 |  | 108 |
| C=CC(=O)N1CCC(Nc2cnc3[nH]cc(C(=O)NCC(C)CC(F)(F)F)c3n2)CC1 (stereo not drawn) [Example 253, 2-[(1-acryloylpiperidin-4-yl)amino]-N-(4,4,4-trifluoro-2-methylbutyl)-5H-pyrrolo[2,3-b]pyrazine-7-carboxamide] | 429 |  | 77.5 |
| C=CC(=O)N1CCC(Nc2cnc3[nH]cc(C(=O)NC[C@H](C)CC(F)(F)F)c3n2)CC1 [Example 241, 2-[(1-acryloylpiperidin-4-yl)amino]-N-[(2R)-4,4,4-trifluoro-2-methylbutyl]-5H-pyrrolo[2,3-b]pyrazine-7-carboxamide] | 657 |  | 87.9 |
| C=CC(=O)N1C[C@@H](O)C[C@@H](Nc2ncnc3[nH]ccc23)C1 [Example 17, 1-((3R,5S)-3-(7H-Pyrrolo[2,3-d]pyrimidin-4-ylamino)-5-hydroxypiperidin-1-yl)prop-2-en-1-one] | 210 |  | 71.8 |
| C=CC(=O)N1CC[C@@H](Nc2cnc3[nH]cc(C(=O)NC(C)C)c3n2)[C@H](OC)C1 [Example 305, 2-{[(3R,4R)-1-acryloyl-3-methoxypiperidin-4-yl]amino}-N-(propan-2-yl)-5H-pyrrolo[2,3-b]pyrazine-7-carboxamide] | 2640 | 744 |  |
| C=CC(=O)N1CCC(Nc2cnc3[nH]cc(C(=O)N[C@@H]4C[C@H]4C(F)(F)F)c3n2)CC1 [Example 233, 2-[(1-acryloylpiperidin-4-yl)amino]-N-[(1R,2R)-2-(trifluoromethyl)cyclopropyl]-5H-pyrrolo[2,3-b]pyrazine-7-carboxamide] | 532 | 213 |  |
| C=CC(=O)N1C[C@H](Nc2ncnc3[nH]ccc23)C[C@H](N(C)C)C1 [Example 57, 1-((3R,5S)-3-((7H-Pyrrolo[2,3-d]pyrimidin-4-yl)amino)-5-(dimethylamino)piperidin-1-yl)prop-2-en-1-one] | 2610 | 1230 |  |
| C=CC(=O)N1CCC(Nc2cnc3[nH]cc(C(=O)NC4CCCCC4(F)F)c3n2)CC1 (stereo not drawn) [Example 256, 2-[(1-acryloylpiperidin-4-yl)amino]-N-(2,2-difluorocyclohexyl)-5H-pyrrolo[2,3-b]pyrazine-7-carboxamide] | 550 | 48.6 |  |
| C=CC(=O)N1CC[C@@H](F)[C@@H](Nc2ncnc3[nH]ccc23)C1 [Example 54, 1-((3S,4R)-3-((7H-Pyrrolo[2,3-d]pyrimidin-4-yl)amino)-4-fluoropiperidin-1-yl)prop-2-en-1-one] | 366 |  | 222 |
| C=CC(=O)N1CCC(Nc2cnc3[nH]cc(C(=O)N[C@H](C)CC)c3n2)CC1 [Example 289, 2-[(1-acryloylpiperidin-4-yl)amino]-N-[(2R)-butan-2-yl]-5H-pyrrolo[2,3-b]pyrazine-7-carboxamide] | 106 | 37.5 |  |
| C=CC(=O)N1C[C@H](Nc2ncnc3[nH]ccc23)CC[C@@H]1C (racemic) [Example 129, rac-1-[(2S,5R)-2-Methyl-5-(7H-pyrrolo[2,3-d]pyrimidin-4-ylamino)piperidin-1-yl]prop-2-en-1-one] | 797 | 114 |  |
| C=CC(=O)N1CC[C@H](C)[C@@H](Nc2ncnc3[nH]ccc23)C1 (racemic) [Example 50, 1-[(3R,4S)-4-methyl-3-(7H-pyrrolo[2,3-d]pyrimidin-4-ylamino)piperidin-1-yl]prop-2-en-1-one] | 926 |  | 202 |
| C=CC(=O)N1CCC(Nc2cnc3[nH]cc(C(=O)NC4CC(F)(F)C4)c3n2)CC1 [Example 245, 2-[(1-acryloylpiperidin-4-yl)amino]-N-(3,3-difluorocyclobutyl)-5H-pyrrolo[2,3-b]pyrazine-7-carboxamide] | 901 | 228 |  |
| C=CC(=O)N1CCC(Nc2cnc3[nH]cc(C(=O)N[C@H](C)CCC)c3n2)CC1 [Example 274, 2-[(1-acryloylpiperidin-4-yl)amino]-N-[(2R)-pentan-2-yl]-5H-pyrrolo[2,3-b]pyrazine-7-carboxamide] | 476 | 57.9 |  |
| C=CC(=O)N1CCN(c2cnc3[nH]cc(C(=O)NC(C)C)c3n2)CC1 [Example 174, 2-(4-acryloylpiperazin-1-yl)-N-(propan-2-yl)-5H-pyrrolo[2,3-b]pyrazine-7-carboxamide] | 623 | 58.4 |  |

Further lines, with some results ahead:

| IC50 [1] [nM] | Structure (SMILES) | IC50 [2] [nM] | IC50 ([2]; Homo sapiens, PBMC) [nM] |
| --- | --- | --- | --- |
| 549 | C=CC(=O)N1C[C@H](Nc2ncnc3[nH]cc(CCOC)c23)CC[C@@H]1C [Example 13, 1-((2S,5R)-5-((5-(2-Methoxyethyl)-7H-pyrrolo[2,3-d]pyrimidin-4-yl)amino)-2-methylpiperidin-1-yl)prop-2-en-1-one] | 114 |  |
| 389 | C=CC(=O)N1CCC(Nc2cnc3[nH]cc(C(=O)NCCOC)c3n2)CC1 [Example 275, 2-[(1-acryloylpiperidin-4-yl)amino]-N-(2-methoxyethyl)-5H-pyrrolo[2,3-b]pyrazine-7-carboxamide] | 149 |  |
| 362 | C=CC(=O)N1CCC(Nc2cnc3[nH]cc(C(=O)NC4CCCCC4)c3n2)CC1 [Example 278, 2-[(1-acryloylpiperidin-4-yl)amino]-N-cyclohexyl-5H-pyrrolo[2,3-b]pyrazine-7-carboxamide] | 57.4 |  |
| 105 | C#CCNC(=O)c1c[nH]c2ncc(NC3CCN(C(=O)C=C)CC3)nc12 [Example 343, 2-((1-Acryloylpiperidin-4-yl)amino)-N-(prop-2-yn-1-yl)-5H-pyrrolo[2,3-b]pyrazine-7-carboxamide] | 36.8 |  |
| 242 | C=CC(=O)N1CCC(Nc2cnc3[nH]cc(C(=O)N[C@@H](C)CCC)c3n2)CC1 [Example 267, 2-[(1-acryloylpiperidin-4-yl)amino]-N-[(2S)-pentan-2-yl]-5H-pyrrolo[2,3-b]pyrazine-7-carboxamide] | 36 |  |
| 431 | C=CC(=O)N1CCC(Nc2cnc3[nH]cc(C(=O)N[C@H](CC)CC#N)c3n2)CC1 [Example 263, 2-[(1-acryloylpiperidin-4-yl)amino]-N-[(2R)-1-cyanobutan-2-yl]-5H-pyrrolo[2,3-b]pyrazine-7-carboxamide] | 74.3 |  |
| 700 | C=CC(=O)N1CCC(Nc2cnc3[nH]cc(C(=O)NC4CCCC4)c3n2)CC1 [Example 283, 2-[(1-acryloylpiperidin-4-yl)amino]-N-cyclopentyl-5H-pyrrolo[2,3-b]pyrazine-7-carboxamide] |  | 58.4 |
| 522 | C=CC(=O)N1C[C@H](Nc2ncnc3[nH]cc(C#N)c23)CC[C@@H]1C [Example 163, 4-{[(3R,6S)-1-Acryloyl-6-methylpiperidin-3-yl]amino}-7H-pyrrolo[2,3-d]pyrimidine-5-carbonitrile] |  | 109 |
| 617 | C=CC(=O)N1CCC(Nc2cnc3[nH]cc(C(=O)NC4CC(F)C4)c3n2)CC1 (stereo not drawn) [Example 243, 2-[(1-acryloylpiperidin-4-yl)amino]-N-(3-fluorocyclobutyl)-5H-pyrrolo[2,3-b]pyrazine-7-carboxamide] | 155 |  |
